From PMC7926352, “Synthesis, Characterization and In Vitro Evaluation of Novel 5-Ene-thiazolo[3,2-b][1,2,4]triazole-6(5H)-ones as Possible Anticancer Agents” (Molecules, 2021)

Experiments:
[1] = tested on: MALME-3M
[2] = tested on: LOX IMVI
[3] = tested on: Melanoma cell lines
[4] = tested on: SF-295
[5] = tested on: K-562
[6] = tested on: HCC-2998
[7] = tested on: OVCAR-5
[8] = tested on: 786-0
[9] = tested on: SNB-75
[10] = tested on: HT29
[11] = tested on: HS 578T
[12] = tested on: TK-10
[13] = tested on: MDA-MB-231/ATCC
[14] = tested on: Renal Cancer cell lines
[15] = tested on: SF-268
[16] = tested on: CAKI-1
[17] = tested on: UO-31
[18] = tested on: SK-OV-3
[19] = tested on: Prostate Cancer cell lines; parameters: LC50, values range inside panel: unit not given beside the values
[20] = tested on: NCI-H522
[21] = tested on: MDA-MB-435
[22] = tested on: SN12C
[23] = tested on: OVCAR-8
[24] = tested on: HCT-15
[25] = tested on: HOP-92
[26] = tested on: OVCAR-3
[27] = tested on: OVCAR-4
[28] = tested on: UACC-62
[29] = tested on: MOLT-4
[30] = tested on: NCI/ADR-RES
[31] = tested on: PC-3
[32] = tested on: SK-MEL-2
[33] = tested on: RXF 393
[34] = tested on: MCF7
[35] = tested on: RPMI-8226
[36] = tested on: HOP-62
[37] = tested on: SF-539
[38] = tested on: SK-MEL-5
[39] = tested on: IGROV1; type: cell-based, human; settings: IGROV1, Ovarian Cancer
[40] = tested on: UACC-257
[41] = tested on: SR
[42] = tested on: U251
[43] = tested on: HCT-116
[44] = tested on: CNS Cancer cell lines; parameters: LC50, values range inside panel: unit not given beside the values
[45] = tested on: BT-549
[46] = tested on: ACHN
[47] = tested on: A498

Ethyl(Z)-4-(3-(4-chloro-2-((6-oxothiazolo[3,2-b][1,2,4]triazol-5(6H)-ylidene)methyl)phenyl)propanamido)benzoate [Compound 2i]
CC50 [1]: 53.7 µM
CC50 [2]: 42.6 µM
CC50 [3]: 42.6 to 77.6 µM
CC50 [4]: 51.3 µM
CC50 [5]: > 100 µM
CC50 [6]: 66.1 µM
CC50 [7]: 58.9 µM
CC50 [8]: 51.3 µM
CC50 [9]: > 100 µM
CC50 [10]: 49 µM
CC50 [11]: 60.2 µM
CC50 [12]: 51.3 µM
CC50 [13]: > 100 µM
CC50 [14]: 55 µM
CC50 [15]: > 100 µM
CC50 [16]: 55 µM
CC50 [17]: 55 µM
CC50 [18]: 61.6 µM
CC50 [19]: 68.2 µM
LC50, values range inside panel [19]: 36.30– >100
CC50 [20]: 72.4 µM
CC50 [21]: > 100 µM
CC50 [22]: 58.9 µM
CC50 [23]: 85.1 µM
CC50 [24]: 55 µM
CC50 [25]: 83.2 µM
CC50 [26]: 55 µM
CC50 [27]: > 100 µM
CC50 [28]: 51.3 µM
CC50 [29]: > 100 µM
CC50 [30]: > 100 µM
CC50 [31]: > 100 µM
CC50 [32]: 77.6 µM
CC50 [33]: 58.9 µM
CC50 [34]: 50.1 µM
CC50 [35]: 95.5 µM
CC50 [36]: 53.7 µM
CC50 [37]: 50.1 µM
CC50 [38]: 46.8 µM
GI50 [39]: 6.6 µM
TGI [39]: 20.89 µM
CC50 [40]: 63.1 µM
CC50 [41]: > 100 µM
CC50 [42]: 43.6 µM
CC50 [43]: 55 µM
CC50 [44]: 66.2 µM
LC50, values range inside panel [44]: 43.65– >100
CC50 [45]: 60.2 µM
CC50 [46]: 53.7 µM
CC50 [47]: 56.2 µM
